Measurements from US7834172B2, “Composition comprising at least one nucleosidic moiety as a therapeutic agent, and CKC” (Novagali Pharma SA, priority 2007, dated 2010).

Test: CKC/oligonucleotide complex formation, observation of precipitation
Assay type: physicochemical
Details: SEQ ID No. 2 solution 10 μM
Excerpt: CKC/Oligonucleotides complexes are formed due to the interaction of the CKC positive charges with the oligonucleotides negative charges conferred by each of the bases (18 in the case of SEQ ID No.2). The complex formation has the effect of neutralizing part of the negative charges of the oligonucleotides and to bring some lipophilic moieties to the complex. A stable complex with a balanced lipophilicity enhances the oligonucleotide penetration in the cells due to the affinity with the lipophilic cell membranes.
Stable complexes are formed without precipitation at ratios below 10/18 (CKC/oligonucleotide negative charges, the few lipophilic moieties being unable to induce the precipitation.

SEQ ID No. 2: 18 mer-phosphorotioate oligonucleotide, 5′-3′ sequence ACT CAT ATT CAT AGG GTG (DNA ACTCATATTCATAGGGTG; all phosphorothioate, sugars by position and methylation of C not given here; further chemistry not fully specified)
Observation (precipitation) (ratio CKC/negative charges 0.05, CKC 10 μM): No precipitation
Observation (precipitation) (ratio CKC/negative charges 0.27, CKC 50 μM): No precipitation
Observation (precipitation) (ratio CKC/negative charges 0.55, CKC 100 μM): No precipitation
Observation (precipitation) (ratio CKC/negative charges 0.83, CKC 150 μM): ↓
Observation (precipitation) (ratio CKC/negative charges 1.11, CKC 200 μM): ↓
Observation (precipitation) (ratio CKC/negative charges 1.66, CKC 300 μM): ↓
Observation (precipitation) (ratio CKC/negative charges 2.22, CKC 400 μM): ↓
Observation (precipitation) (ratio CKC/negative charges 2.77, CKC 500 μM): ↓
Observation (precipitation) (ratio CKC/negative charges 4.17, CKC 750 μM): ↓↓
Observation (precipitation) (ratio CKC/negative charges 5.55, CKC 1000 μM): ↓↓↓
Observation (precipitation) (ratio CKC/negative charges 55.55, CKC 10000 μM): ↓↓↓
